Tests used:
[1] = test system: Puccinia recondita f. sp. tritici; test: Puccinia recondita f. sp. tritici/Wheat/Leaf Disc Preventative (Brown Rust); assay type: in vivo; conditions: foliar, 200 ppm in the formulation, wheat leaf segments cv. Kanzler, inoculated 1 day after application, assessed 7-9 days after application, compared to untreated, read-out: disease control
Method: Puccinia recondita f. sp. tritici/Wheat/Leaf Disc Preventative (Brown Rust) Wheat leaf segments cv. Kanzler are placed on agar in multiwell plates (24-well format) and sprayed with the formulated test compound diluted in water. The leaf disks are inoculated with a spore suspension of the fungus 1 day after application. The inoculated leaf segments are incubated at 19° C. and 75% rh under a light regime of 12 h light/12 h darkness in a climate cabinet and the activity of a compound is assessed as percent disease control compared to untreated when an appropriate level of disease damage appears in untreated check leaf segments (7-9 days after application).

[2] = test system: Glomerella lagenarium (Colletotrichum lagenarium); test: Glomerella lagenarium (Colletotrichum lagenarium)/Liquid Culture (Anthracnose); assay type: cell-based; conditions: Colletotrichum orbiculare; 200 ppm in the formulation; liquid culture, growth inhibition photometrically 3 to 4 days after application; compared to untreated control; read-out: disease control
Method: Glomerella lagenarium (Colletotrichum lagenarium)/Liquid Culture (Anthracnose) Conidia of the fungus from cryogenic storage are directly mixed into nutrient broth (PDB potato dextrose broth). After placing a (DMSO) solution of test compound into a microtiter plate (96-well format), the nutrient broth containing the fungal spores is added. The test plates are incubated at 24° C. and the inhibition of growth is measured photometrically 3 to 4 days after application.

[3] = test system: Mycosphaerella graminicola (Septoria tritici); test: Mycosphaerella graminicola (Septoria tritici)/Liquid Culture (Septoria Blotch); assay type: cell-based; conditions: Zymoseptoria tritici; 200 ppm in the formulation; liquid culture, growth inhibition photometrically 4 to 5 days after application; compared to untreated control; read-out: disease control
Method: (§1) Mycosphaerella graminicola (Septoria tritici)/Liquid Culture (Septoria Blotch) Conidia of the fungus from cryogenic storage are directly mixed into nutrient broth (PDB potato dextrose broth). After placing a (DMSO) solution of test compound into a microtiter plate (96-well format), the nutrient broth containing the fungal spores is added. The test plates are incubated at 24° C. and the inhibition of growth is determined photometrically 4 to 5 days after application.

[4] = test system: Phaeosphaeria nodorum (Septoria nodorum); test: Phaeosphaeria nodorum (Septoria nodorum)/Wheat/Leaf Disc Preventative (Glume Blotch); assay type: in vivo; conditions: Parastagonospora nodorum, foliar; 200 ppm in the formulation; wheat leaf segments cv. Kanzler, inoculated 2 days after application, assessed 5-7 days after application; compared to untreated; read-out: disease control
Method: Phaeosphaeria nodorum (Septoria nodorum)/Wheat/Leaf Disc Preventative (Glume Blotch) Wheat leaf segments cv. Kanzler are placed on agar in a multiwell plate (24-well format) and sprayed with the formulated test compound diluted in water. The leaf disks are inoculated with a spore suspension of the fungus 2 days after application. The inoculated test leaf disks are incubated at 20° C. and 75% rh under a light regime of 12 h light/12 h darkness in a climate cabinet and the activity of a compound is assessed as percent disease control compared to untreated when an appropriate level of disease damage appears in untreated check leaf disks (5-7 days after application).

[5] = test system: Mycosphaerella arachidis (Cercospora arachidicola); test: Mycosphaerella arachidis (Cercospora arachidicola)/Liquid Culture (Early Leaf Spot); assay type: cell-based; conditions: 200 ppm in the formulation, liquid culture, growth inhibition photometrically 4-5 days after application, compared to untreated control, read-out: disease control
Method: as §1, with “arachidis (Cercospora arachidicola)/Liquid” for “graminicola (Septoria tritici)/Liquid”, “(Early Leaf Spot)” for “(Septoria Blotch)”, “4-5” for “4 to 5”

[6] = test system: Monographella nivalis (Microdochium nivale); test: Monographella nivalis (Microdochium nivale)/Liquid Culture (Foot Rot Cereals); assay type: cell-based; conditions: 200 ppm in the formulation, liquid culture, growth inhibition photometrically 4-5 days after application, compared to untreated control, read-out: disease control
Method: as §1, with “Monographella nivalis (Microdochium nivale)/Liquid” for “Mycosphaerella graminicola (Septoria tritici)/Liquid”, “(Foot Rot Cereals)” for “(Septoria Blotch)”, “4-5” for “4 to 5”

[7] = test system: Botryotinia fuckeliana (Botrvtis cinerea); test: Botryotinia fuckeliana (Botrvtis cinerea)/Liquid Culture (Gray Mould); assay type: cell-based; conditions: Botrytis cinerea; 200 ppm in the formulation; liquid culture, growth inhibition photometrically 3-4 days after application; compared to untreated control; read-out: disease control
Method: as §1, with “Botryotinia fuckeliana (Botrvtis cinerea)/Liquid” for “Mycosphaerella graminicola (Septoria tritici)/Liquid”, “(Gray Mould)” for “(Septoria Blotch)”, “(Vogels” for “(PDB potato dextrose”, “3-4” for “4 to 5”

COc1ccnc(C(=O)N[C@@H](C)C(=O)O[C@@H](C)c2ccc(Oc3cccc(C(F)(F)F)c3)cc2)c1O [I.ax.001, [(1S)-1-[4-[3-(trifluoromethyl)phenoxy]phenyl]ethyl] (2S)-2-[(3-hydroxy-4-methoxy-pyridine-2-carbonyl)amino] propanoate]
≥ 80%: pest or weed control at 200 ppm [1] | inhibition of growth at 200 ppm [2] | inhibition of growth at 200 ppm [3] | pest or weed control at 200 ppm [4] | inhibition of growth at 200 ppm [5]

COc1ccnc(C(=O)N[C@@H](C)C(=O)O[C@@H](C)c2ccc(Oc3ccc(Cl)cc3Cl)cc2)c1O [I.aw.001, [(1S)-1-[4-(2,4-dichlorophenoxy)phenyl]ethyl] (2S)-2-[(3-hydroxy-4-methoxy-pyridine-2-carbonyl)amino] propanoate]
≥ 80%: pest or weed control at 200 ppm [1] | inhibition of growth at 200 ppm [2] | inhibition of growth at 200 ppm [3] | pest or weed control at 200 ppm [4] | inhibition of growth at 200 ppm [5]

COc1ccnc(C(=O)N[C@@H](C)C(=O)O[C@@H](C)c2ccc(-c3ccc(Cl)cc3C)cc2)c1O [I.n.001, [(1S)-1-[4-(4-chloro-2-methyl-phenyl)phenyl]ethyl] (2S)-2-[(3-hydroxy-4-methoxy-pyridine-2-carbonyl)amino] propanoate]
≥ 80%: pest or weed control at 200 ppm [1] | inhibition of growth at 200 ppm [2] | inhibition of growth at 200 ppm [3] | pest or weed control at 200 ppm [4] | inhibition of growth at 200 ppm [5] | inhibition of growth at 200 ppm [6] | inhibition of growth at 200 ppm [7]

COc1ccnc(C(=O)N[C@@H](C)C(=O)O[C@@H](C)c2ccc(-c3ccc(C)cc3)cc2)c1O [I.w.001, [(1S)-1-[4-(p-tolyl)phenyl]ethyl] (2S)-2-[(3-hydroxy-4-methoxy-pyridine-2-carbonyl)amino] propanoate]
≥ 80%: pest or weed control at 200 ppm [1] | inhibition of growth at 200 ppm [2] | inhibition of growth at 200 ppm [3] | pest or weed control at 200 ppm [4] | inhibition of growth at 200 ppm [5] | inhibition of growth at 200 ppm [6]

COc1ccnc(C(=O)N[C@@H](C)C(=O)O[C@@H](C)c2ccc(Oc3ccc(C(F)(F)F)cc3)cc2)c1O [I.ay.001, [(1S)-1-[4-[4-(trifluoromethyl)phenoxy]phenyl]ethyl] (2S)-2-[(3-hydroxy-4-methoxy-pyridine-2-carbonyl)amino] propanoate]
≥ 80%: pest or weed control at 200 ppm [1] | inhibition of growth at 200 ppm [2] | inhibition of growth at 200 ppm [3] | pest or weed control at 200 ppm [4] | inhibition of growth at 200 ppm [5] | inhibition of growth at 200 ppm [6]

COc1ccnc(C(=O)N[C@@H](C)C(=O)O[C@@H](C)c2ccc(-c3cccc(Cl)c3)cc2)c1O [I.r.001, [(1SS)-1-[4-(3-chlorophenyl)phenyl]ethyl] (2S)-2-[(3-hydroxy-4-methoxy-pyridine-2-carbonyl)amino] propanoate]
≥ 80%: pest or weed control at 200 ppm [1] | inhibition of growth at 200 ppm [2] | inhibition of growth at 200 ppm [3] | inhibition of growth at 200 ppm [5] | inhibition of growth at 200 ppm [6] | inhibition of growth at 200 ppm [7]

COc1cc(-c2ccc([C@H](C)OC(=O)[C@H](C)NC(=O)c3nccc(OC)c3O)cc2)ccn1 [I.ba.001, [(1S)-1-[4-(2-methoxy-4-pyridyl)phenyl]ethyl] (2S)-2-[(3-hydroxy-4-methoxy-pyridine-2-carbonyl)amino] propanoate]
≥ 80%: pest or weed control at 200 ppm [1] | inhibition of growth at 200 ppm [2] | inhibition of growth at 200 ppm [3] | pest or weed control at 200 ppm [4] | inhibition of growth at 200 ppm [5] | inhibition of growth at 200 ppm [6]

COc1ccnc(C(=O)N[C@@H](C)C(=O)O[C@@H](C)c2ccc(-c3ccccc3COC(C)(C)C)cc2)c1O [I.k.001, [(1S)-1-[4-[2-(tert-butoxymethyl)phenyl]phenyl]ethyl] (2S)-2-[(3-hydroxy-4-methoxy-pyridine-2-carbonyl)amino] propanoate]
≥ 80%: pest or weed control at 200 ppm [1] | inhibition of growth at 200 ppm [2] | inhibition of growth at 200 ppm [3] | pest or weed control at 200 ppm [4] | inhibition of growth at 200 ppm [5] | inhibition of growth at 200 ppm [7]

COc1ccnc(C(=O)N[C@@H](C)C(=O)O[C@@H](C)c2cccc(Oc3ccccc3)c2)c1O [I.aq.001, [(1S)-1-(3-phenoxyphenyl)ethyl] (2S)-2-[(3-hydroxy-4-methoxy-pyridine-2-carbonyl)amino] propanoate]
≥ 80%: pest or weed control at 200 ppm [1] | inhibition of growth at 200 ppm [2] | inhibition of growth at 200 ppm [3] | pest or weed control at 200 ppm [4] | inhibition of growth at 200 ppm [7]

COc1ccnc(C(=O)N[C@@H](C)C(=O)O[C@@H](C)c2ccc(-c3ccccc3)cc2)c1OC(C)=O [I.d.019, [(1S)-1-(4-phenylphenyl)ethyl] (2S)-2-[(3-acetoxy-4-methoxy-pyridine-2-carbonyl)amino] propanoate]
≥ 80%: pest or weed control at 200 ppm [1] | inhibition of growth at 200 ppm [3] | pest or weed control at 200 ppm [4]

CCc1ccccc1-c1ccc([C@H](C)OC(=O)[C@H](C)NC(=O)c2nccc(OC)c2O)cc1 [I.i.001, [(1S)-1-[4-(2-ethylphenyl)phenyl]ethyl] (2S)-2-[(3-hydroxy-4-methoxy-pyridine-2-carbonyl)amino] propanoate]
≥ 80%: pest or weed control at 200 ppm [1] | inhibition of growth at 200 ppm [2] | inhibition of growth at 200 ppm [3] | pest or weed control at 200 ppm [4] | inhibition of growth at 200 ppm [5]

COc1ccnc(C(=O)N[C@@H](C)C(=O)O[C@@H](C)c2ccc(-c3ccc(Br)cc3)cc2)c1OC(C)=O [I.v.019, [(1S)-1-[4-(4-bromophenyl)phenyl]ethyl] (2S)-2-[(3-acetoxy-4-methoxy-pyridine-2-carbonyl)amino] propanoate]
≥ 80%: pest or weed control at 200 ppm [1] | inhibition of growth at 200 ppm [3] | pest or weed control at 200 ppm [4] | inhibition of growth at 200 ppm [5] | inhibition of growth at 200 ppm [6]

COc1ccnc(C(=O)N[C@@H](C)C(=O)O[C@@H](C)c2ccc(Oc3ccc(C(F)(F)F)cc3Cl)cc2)c1O [I.az.001, [(1S)-1-[4-[2-chloro-4-(trifluoromethyl)phenoxy]phenyl]ethyl] (2S)-2-[(3-hydroxy-4-methoxy-pyridine-2-carbonyl)amino] propanoate]
≥ 80%: inhibition of growth at 200 ppm [2] | inhibition of growth at 200 ppm [3] | pest or weed control at 200 ppm [4] | inhibition of growth at 200 ppm [5]

COc1ccnc(C(=O)N[C@@H](C)C(=O)O[C@@H](C)c2ccc(-c3ccc(C(F)(F)F)cc3)cc2)c1O [I.x.001, [(1S)-1-[4-[4-(trifluoromethyl)phenyl]phenyl]ethyl] (2S)-2-[(3-hydroxy-4-methoxy-pyridine-2-carbonyl)amino] propanoate]
≥ 80%: pest or weed control at 200 ppm [1] | inhibition of growth at 200 ppm [2] | inhibition of growth at 200 ppm [3] | inhibition of growth at 200 ppm [5] | inhibition of growth at 200 ppm [6] | inhibition of growth at 200 ppm [7]

COc1ccnc(C(=O)N[C@@H](C)C(=O)O[C@@H](C)c2ccc(-c3ccccc3)cc2)c1O [I.d.001, [(1S)-1-(4-phenylphenyl)ethyl] (2S)-2-[(3-hydroxy-4-methoxy-pyridine-2-carbonyl)amino] propanoate]
≥ 80%: pest or weed control at 200 ppm [1] | inhibition of growth at 200 ppm [2] | inhibition of growth at 200 ppm [3] | inhibition of growth at 200 ppm [5] | inhibition of growth at 200 ppm [6] | inhibition of growth at 200 ppm [7]

Reference: patent publication US11629129B2, “Microbiocidal picolinamide derivatives” (SYNGENTA PARTICIPATIONS AG, priority 2018, dated 2023)
